Measurements as given in patent publication US20200079750A1, “COMPOUND OR SALT THEREOF, ANTIVIRAL AGENT, AND PHARMACEUTICAL COMPOSITION” (priority 2017, published 2020).

How the values were obtained:
[1] = tested on: Towne strain of human cytomegalovirus (HCMV); experiment: Evaluation of antiviral activity: viral load of HCMV-infected HEL cells by the plaque method; type: cell-based; settings: for EC50: Human betaherpesvirus 5, HEL, 144 h, read-out: EC50 value (anti-HCMV effect)
Experimental: Diploid fibroblasts derived from human embryonic lung (Human embryonic lung fibroblasts; HEL cells) cultured in a 9.6 cm^2 petri dish until they became confluent using Dulbecco's Modified Eagle Medium (DMEM) to which 8% fetal calf serum (FCS) was added were prepared. The HEL cells were adsorbed and infected with a Towne strain of human cytomegalovirus (HCMV) with a multiplicity of infection (MOI) of 1, and cultured at 37° C. for 1 hour to obtain HCMV-infected cells.
The compound of the present invention or tricin which were serially diluted with dimethyl sulfoxide (compound concentration: 0.001, 0.01, 0.1, 1 and 10 μM) was added to the above HCMV-infected cells and cultured for 6 days. The number of infectious HCMV particles produced in the culture supernatant (viral load) was determined by the plaque method.
The plaque method was performed in the following manner. After the HEL cells cultured in a 24-well plate until they became confluent were adsorbed and infected with the culture supernatant which was 10-fold serially diluted at 37° C. for 1 hour, the 2% FCS and 0.4% agar-containing DMEM media were overlaid and then cultured. Several days (6 to 12 days) after the initiation of culture, the number of plaques appeared was counted under a microscope, and the viral load was measured.
A lower value of the relative value (the viral load against control) means a higher antiviral activity.
Using the compound obtained as mentioned above (the compound of the present invention), tricin and ganciclovir, the antiviral activity of each compound was evaluated in the same manner as in the above <Evaluation of Antiviral Activity—1>.

HEL cells = experiment: Evaluation of cytotoxicity to HEL cells by LDH release assay; type: cell-based, human; settings: 37° C. for 5 days, concentrations of at least up to 10 μM, FIG. 3
Experimental: Using the compound obtained as mentioned above (the compound of the present invention), tricin and flavopiridol, the cytotoxicity to the HEL cells was evaluated in accordance with the following procedure. Flavopiridol is a control compound in this Test Example, which is known to have toxicity although it functions as an antiviral agent.
The HEL cells were cultured at 37° C. for 5 days in the presence or absence of the above each compound. The proportion of viable cells after culture was calculated by the LDH release assay. The kit (trade name “Cyto Tox 96 (registered trademark) assay”, manufactured by Promega Corporation) was used for the assay. The test was repeated three times, and data were represented as mean±SD.

SMILES	EC50 [1]	cytotoxicity (proportion of viable cells) (HEL cells)	antiviral activity (viral load against control) ([1]; FIG. 1, compared with tricin, clearly observed at 0.001 to 1.000 μM)	antiviral activity (viral load against control) ([1]; FIG. 2, compared with tricin and ganciclovir, clearly observed at 0.1 to 1,000 nM)	anti-HCMV effect higher than that of ganciclovir ([1]; from EC50 values, versus ganciclovir)	anti-HCMV effect higher than that of tricin ([1]; from EC50 values, versus tricin)
Nc1nc(O)c2ncn(COC(CO)CO)c2n1 [ganciclovir, reference compound]	27.5 nM					
COc1cc(-c2cc(=O)c3ccc(F)cc3o2)cc(OC)c1O [the compound of the present invention, 7-fluoro-4′-hydroxy-3′,5′-dimethoxyflavone]	0.13 nM	no cytotoxicity	remarkably higher antiviral activity than tricin	remarkably higher antiviral activity than tricin and ganciclovir	about 200 fold	about 400 fold
COc1cc(-c2cc(=O)c3c(O)cc(O)cc3o2)cc(OC)c1O [tricin, 4′,5,7-trihydroxy-3′,5′-dimethoxyflavone, reference compound]	54.3 nM					
